Here are results for 17 compounds from BindingDB's records for patent US20240336593 (Lnnovstonetherapeutics, 2024).

Broadly, the IC50 is the point on the concentration scale where inhibition reaches its midpoint.

For the experiment, the target named is Protein arginine N-methyltransferase 5 (Homo sapiens, UniProt O14744). Put plainly: Test on the inhibitory activity of the compounds of the invention against PRMT5 enzyme by radioisotopic method. The method, then: Test method: A 1× enzyme reaction buffer (10 mM Tris 8.0 (Sigma, Cat. No. T2694-1L), 0.01% Tween-20 (Sigma, Cat. No. P2287-100 ML), 1 mM DTT (Sigma, Cat. No. D0632-10G)) was prepared. […] SAM (PerkinElmer, Cat. No. NET155V001MC) were added to the 1×enzyme reaction buffer, to prepare a 25/15× mixed solution (PRMT5 final concentration: 5 nM, [3H] SAM final concentration: 0.3 μM). […] 25 µL of the reaction mixture was transferred into a FlashPlate (Streptavidin FlashPlate HTS PLUS, High Capacity, 384-well, Perkin Elmer, Cat. No. SMP410A001PK), and incubated at room temperature for 1 h. After washed three times with distilled water containing 0.1% Tween-20, the microplate was read on a MicroBeta reader for CPM data (Counts Per Minute). […] Then the inhibition rate Inh % (Y) corresponding to each concentration (X) was input in EXCEL, and the IC50 value (the half maximal inhibitory concentration) of each compound was calculated with the XLfit plug-in according to the built-in four-parameter fitting equation Y=Bottom+(Top-Bottom)/(1+(IC50/X)[…]).
Protein arginine N-methyltransferase 5, sequence (O14744 whole entry): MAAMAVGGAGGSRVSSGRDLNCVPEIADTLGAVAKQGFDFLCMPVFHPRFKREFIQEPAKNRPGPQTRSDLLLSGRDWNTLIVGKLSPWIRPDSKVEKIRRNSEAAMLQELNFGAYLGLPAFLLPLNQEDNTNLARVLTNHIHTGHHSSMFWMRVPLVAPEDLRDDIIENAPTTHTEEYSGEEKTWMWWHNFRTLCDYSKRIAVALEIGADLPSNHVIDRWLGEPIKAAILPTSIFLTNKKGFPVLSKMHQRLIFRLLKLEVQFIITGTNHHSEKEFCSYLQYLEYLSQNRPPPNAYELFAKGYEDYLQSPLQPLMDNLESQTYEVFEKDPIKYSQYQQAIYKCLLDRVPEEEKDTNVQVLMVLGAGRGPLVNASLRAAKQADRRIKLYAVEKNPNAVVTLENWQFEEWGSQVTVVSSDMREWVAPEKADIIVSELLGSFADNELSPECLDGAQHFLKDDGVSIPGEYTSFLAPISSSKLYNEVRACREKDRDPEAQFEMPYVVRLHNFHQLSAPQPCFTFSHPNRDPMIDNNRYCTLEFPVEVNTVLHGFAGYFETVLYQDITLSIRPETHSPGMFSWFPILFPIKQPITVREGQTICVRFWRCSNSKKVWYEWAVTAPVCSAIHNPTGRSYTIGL
With `N#CCC(=O)N1CCC(Nc2cc(C(=O)N3CC[C@H](N4CCc5ccccc5C4)[C@@H](O)C3)ncn2)CC1` [US20240336593, Example 143], the half-inhibitory concentration (IC50) was below 100 nM.

The compound `O=C(c1cc(NC2CCN(CCO)CC2)ncn1)N1CC[C@H](N2CCc3ccccc3C2)[C@@H](O)C1` [US20240336593, Example 122] displayed a half-maximal inhibitory concentration (IC50) below 100 nM.

For the compound `COCCCCNc1cc(C(=O)N2CC[C@@H](N3CCc4ccccc4C3)[C@H](O)C2)nc(-c2ccccc2)n1` [US20240336593, Example 148], the IC50 was below 100 nM.

As for `CN1CCC(Nc2cc(C(=O)N3CC[C@H](O)[C@@H](N4CCc5ccccc5C4)CC3)ncn2)CC1` (relative stereo) [US20240336593, Example 129], the half-maximal inhibitory concentration (IC50) is below 100 nM.

`CS(=O)(=O)N1CCC(Nc2cc(C(=O)N3CC[C@H](O)[C@@H](N4CCc5ccccc5C4)CC3)ncn2)CC1` (relative stereo) [US20240336593, Example 130] registered an IC50 below 100 nM.

In turn, `O=C(c1cc(NC2CCN(CC(F)(F)F)CC2)ncn1)N1CC[C@H](N2CCc3ccccc3C2)[C@@H](O)C1` (relative stereo) [US20240336593, Example 121] came in with an IC50 below 100 nM.

Take `O=C(c1cc(NC2CCOCC2)ncn1)N1CC[C@H](O)[C@@H](N2CCc3ccccc3C2)CC1` (relative stereo) [US20240336593, Example 128]: the IC50 is below 100 nM.

Regarding `CO[C@H]1C[C@@H](Nc2cc(C(=O)N3CC[C@@H](N4CCc5ccccc5C4)[C@H](O)C3)nc(-c3ccccc3)n2)C1` [US20240336593, Example 146], the 50% inhibitory concentration (IC50) is below 100 nM.

Compound `Cc1cccc(Nc2cc(N3CC[C@H](N4CCc5ccccc5C4)[C@@H](O)C3)ncn2)c1` (relative stereo) [US20240336593, Example 34] registered an IC50 below 100 nM.

As for `CN1CCC(Nc2cc(C(=O)N3CC[C@H](N4CCc5ccccc5C4)[C@@H](O)C3)ncn2)CC1` (relative stereo) [US20240336593, Example 100], the IC50 was below 100 nM.

For the compound `CS(=O)(=O)c1cccc(Nc2cc(C(=O)N3CC[C@H](N4CCc5ccccc5C4)[C@@H](O)C3)ncn2)c1` (relative stereo) [US20240336593, Example 133], the IC50 was below 100 nM.

`CC(=O)N1CCC(Nc2cc(C(=O)N3CC[C@@H](N4CCc5ccccc5C4)[C@H](O)C3)nc(-c3cn[nH]c3)n2)CC1` [US20240336593, Example 145] registered an IC50 below 100 nM.

The compound `COc1ccccc1Nc1cc(C(=O)N2CC[C@H](N3CCc4ccccc4C3)[C@@H](O)C2)ncn1` (relative stereo) [US20240336593, Example 105] displayed an IC50 below 100 nM.

For `O=C(c1cc(NC2CCS(=O)(=O)CC2)ncn1)N1CC[C@H](N2CCc3ccccc3C2)[C@@H](O)C1` (relative stereo) [US20240336593, Example 135], the half-inhibitory concentration (IC50) is below 100 nM.

With `O=C(c1cc(NC2CCNCC2)ncn1)N1CC[C@H](N2CCc3ccccc3C2)[C@@H](O)C1` [US20240336593, Example 112], the IC50 is below 100 nM.

Turning to `O=C(c1cc(NCC(F)F)nc(-n2ccnc2)n1)N1CCC(N2CCc3ccccc3C2)[C@H](O)C1` (some centres not stated) [US20240336593, Example 147], the IC50 was below 100 nM.

`CS(=O)(=O)c1ccc(Nc2cc(C(=O)N3CC[C@H](N4CCc5ccccc5C4)[C@@H](O)C3)ncn2)cc1` (relative stereo) [US20240336593, Example 132] showed an IC50 below 100 nM.
